“Also recorded” adds a separate entry of the source.
Key:
[1] = background statement; cited from earlier work
[2] = system: subcutaneous MDA-MB-231 tumors; test: Treatment of MDA-MB-231 xenografts in athymic nude mice; format: in vivo, mouse
Experimental: FIGS. 3(A-C) are graphs and images illustrating treatment of MDA-MB-231 xenografts in an athymic nude mouse model. 6-week-old female NCR nu/nu mice were injected subcutaneously into the right flank with 2×10^6 cells; treatment began when tumor volume reached 100-150 mm^3, approximately 2 weeks after tumor cell inoculation. […] 20 μL PBS or corresponding particle amount of PVXNi were injected as controls. Tumor volume was normalized at the initial day. Data were expressed as expressed as means+SD. (A) Tumor growth curve during treatment. (B) Tumor volume distribution in each group during treatment. (C) Representative of isolated tumor tissues after treatment.
Treatment started when the tumor volume reached 100-150 mm^3. […] While we envision systemic administration for clinical applications, we started here by evaluating intratumoral treatments to focus on the question as to whether PVX-delivered HisTRAIL would outperform free HisTRAIL; the intratumoral treatment allows one to precisely control and match the dosing, and, thus, eliminates confounding factors from varying biodistribution. […]
The animal study was carried using an IACUC-approved protocol. […] Tumors were measured daily and the volume was calculated using the formula v=(l×w^2)/2, where l is the length and w is the width of tumor. […] All results are expressed as means±SD, calculated by GraphPad Prism. […]

caspase-3/7 = test: Caspase-Glo 3/7 assay in MDA-MB-231 cells; format: cell-based; settings: 20 ng/mL HisTRAIL, 3 h
From the text: (§1) TRAIL-DR4/5 receptor binding activates caspase-dependent apoptosis. Specifically, TRAIL-DR4/5 receptor binding induces receptor oligomerization, followed by the recruitment of FAS-associated protein with death domain (FADD) and pro-caspase-8 to form a functional death-inducing signaling complex (DISC) at the plasma membrane. Subsequently, caspase-8 is activated and released into the cytosol, where it cleaves and activates caspase-3 or -7 to execute the apoptosis in cancer cells (FIG. 4). […] The drugs were incubated with MDA-MB-231 cells for 3 h before adding reagents from Caspase-Glo 8 and Caspase-Glo 3/7 Assay Kit. The assay was performed as per manufacturer's instructions.
(§2) Determination of levels of activated caspase-8 and caspase-3/7 MDA-MB-231 cells were seeded at 5,000 cells per well in a white-walled 96-well luminometer microplate one day prior to treatment. […] Non-treated cells were used as control. Samples were prepared in triplicate. Caspase-Glo 8 assay kit and Caspase-Glo 3/7 assay kit (Promega) were used to determine the level of activated caspases. Briefly, the reagent causes cell lysis, followed by caspase cleavage of the substrate and aminoluciferin which produces a luminescent signal in the presence of luciferase and ATP from the kit. Luminescence was read by the Tecan infinite-M200 plate reader to determine the proportional activated level of caspase 8- and 3/7.

BT-549 cell line (TNBC) = test: MTT cytotoxicity assay, BT-549; format: cell-based; settings: 12 h incubation, normalized to TRAIL, GraphPad Prism
Experimental: (§3) Herein, a panel of triple negative breast cancer (TNBC) cell lines, MDA-MB-231, HCC-38, and BT-549, were used.
(§4) Triple negative breast cancer cell lines MDA-MB-231, HCC-38, and BT-549 cell lines (provided by Prof. Ruth Keri, Case Western Reserve University) and HER-2 amplified breast cancer cell line SK-BR-3 (ATCC). MDA-MB-231, HCC-38, BT-549, and SK-BR-3 were cultured in Dulbecco's modified Eagle's medium (DMEM) and Roswell Park Memorial Institute (RPMI) 1640 medium without or with insulin (0.023 IU/mL final concentration), and McCoy's 5A medium, respectively. All media were supplemented with 10% (v/v) fetal bovine serum (FBS) and 1% (v/v) penicillin/streptomycin. All cells were maintained at 37° C. and 5% CO2.
(§5) Cells (MDA-MB-231, HCC-38, BT-549, and SK-BR-3) were seeded at 5,000 cells per well in culture medium in 96-well plates 1 day prior to treatment. […] Samples were prepared in triplicate and each assay was performed at least twice. […] Following incubation, cells were washed with PBS, pH 7.4 and fresh medium was replenished; then 10 μL MTT reagent was added as per manufacturer's instructions. Absorbance was determined using the Tecan infinite-M200 plate reader.

caspase-8 = test: Caspase-Glo 8 assay in MDA-MB-231 cells; format: cell-based; settings: 20 ng/mL HisTRAIL, 3 h
From the text: as §1, §2

[3] = system: MDA-MB-231 triple negative breast cancer cell line; test: MTT cytotoxicity assay, MDA-MB-231; format: cell-based; settings: 12 h incubation, normalized to TRAIL, GraphPad Prism
Experimental: as §3, §4, §5

HCC-38 cell line (TNBC) = test: MTT cytotoxicity assay, HCC-38; format: cell-based; settings: 12 h incubation, normalized to TRAIL, GraphPad Prism
Experimental: as §3, §4, §5

[4] = system: SK-BR-3, HER2-amplified breast cancer cell line; test: MTT cytotoxicity assay, SK-BR-3; format: cell-based; settings: HER-2 amplified breast cancer cell line
Experimental: Data are expressed as means±SD.
as §3, §4, §5

phenanthriplatin
potency compared to cisplatin, carboplatin and oxalatoplatin [1]: 40 ×

HisTRAIL: Recombinant human TRAIL (aa 114-281) with N-terminal His-tag and thrombin cleavage sequence, expressed in ClearColi BL21(DE)3
average relative tumor volume increase vs. starting volume ([2]; day 30 post first treatment, intratumoral every 2 days, 5 μg His-TRAIL/injection (PVX-Ni at corresponding particle amount)): 2.53 fold | tumor growth inhibition (in words) ([2]; intratumoral, athymic nude mice with MDA-MB-231 tumors, vs PBS control): effective inhibition | caspase 3/7 increase vs. PBS controls (caspase-3/7): 1.5 fold | IC50 values, BT-549 (BT-549 cell line (TNBC)): 0.543 µg/mL | level of caspase 8, increase compared to PBS control (caspase-8): 1.38 fold | IC50 values, MDA-MB-231 [3]: 0.0866 µg/mL | IC50 values, MDA-MB-231 ([3]; listed as HiTRAIL): 0.0868 µg/mL | IC50 values, HCC-38 (HCC-38 cell line (TNBC)): 0.3672 µg/mL | cell killing / apoptosis induction in SK-BR-3 [4]: Neither PVX-HisTRAIL nor HisTRAIL did induce apoptosis; also recorded: did not show cell killing efficacy

Source: patent US12251410B2, “Anticancer trail-targeted plant virus particles” (CASE WESTERN RESERVE UNIVERSITY, priority 2017, dated 2025)
